Test results reported in patent US20180042874A1, “METHOD FOR TREATING OSTEOPOROSIS” (China Medical University, priority 2016, published 2018).

What was measured:
[1] = system: RAW 264.7 cells; assay: Cytotoxicity test (MTT colorimetric assay); assay type: cell-based
Text: MTT (3-(4,5-dimethylthiazol-2-yl)-2,5-diphenyl tetrazolium bromide is yellow when dissolved in a phenol red-free medium. The yellow MTT solution is reduced by succinate dehydrogenase in mitochondria of living cells into purple insoluble formazan crystals, deposited in the cells generating blue formazan crystals. The amount of formazan crystals produced is proportional to the number of viable cells (succinate dehydrogenase in dead cells is degraded and unable to reduce MTT). Formazan crystals can be dissolved in acidic isopropanol or dimethyl sulfoxide (DMSO), and an enzyme linked immunosorbent assay detector can be used to measure the light absorption value, therefore, MTT can be used as a marker for cell survival rate.
Cytotoxicity test of the compound of formula I in RAW 264.7 cells was studied and detected by using the MTT colorimetric assay. […] After being cultured in an incubator at 37° C. for 4 hours, equivalent amount of cell culture solution by volume was added into dimethyl sulfoxide to dissolve MTT Formazan, 100 μl was respectively collected and placed in a 96 well-plate, and the light absorption value at 570 nm was determined by using an enzyme immunosorbent assay detector. The Cell survival rate (%) was calculated by using the following formula: (light absorption value of drug-treated cells)/light absorption value of culture solution-treated cells)×100%.
Firstly, we would like to know whether the compound of formula I were toxic to RAW 264.7 cells, and concentrations appropriate for subsequent experiments were to be selected. After being treated with 0, 1, 5, 10, 20, 40, 80 μg/ml of the compound of formula I for 72 hours, detected with the MTT colorimetric assay. […] To confirm the selected concentrations of the compound of formula I would not produce cytotoxin in the subsequent experiments, 10 μg/ml, 20 μg/ml of the compound of formula I were respectively used for treatment of 3, 6, 9, 12 days, the culture solution was replaced with fresh ones of the same condition once every three days and then detected with the MTT colorimetric assay.

[2] = system: NF-κB p65; assay: Western blot of NF-κB p65; assay type: cell-based, mouse; details: 10 μg/ml co-treated with 100 ng/ml RANKL, 48 hours
Procedure: The effect of the compound of formula I on the protein expression of osteoclast MAPKs pathways induced by receptor activator of nuclear factor κB ligand was studied, experiments were performed by using the Western blot method; RAW 264.7 cells were rinsed in ice-cold PBS, cell lysis buffer was added, the components of the buffer solution included: 10 mM 4-(2-hydroxyethyl)-1-piperazineethanesulfonic acid (HEPES), 1.5 mM MgCl2, 0.5 mM dithiothreitol (DTT), 0.5 μg/ml leupeptin and 6.4% Nonidet P-40, reacted on ice for 15 minutes. The cells were scraped off with a spatula, collected into a 1.5 ml centrifuge tube, the cells were thoroughly broken by using a shaker; centrifuged at 12,000 rpm, 4° C. for 10 minutes; supernatant was added into a new 1.5 ml centrifuge tube; boiled with IX sodiumdodecyl sulfate (SDS) sample buffer, followed by electrophoresis using 10 to 12% SDS-PAGE. […] The transfer membrane was rinsed again and the membrane loaded with chemical luminescence reagent ECL was allowed to react with a photosensitive sheet in a darkroom for a suitable period of time, the photosensitive sheet then reacted with the developer. After the photosensitive sheet was exposed to light a band-shaped antibody-binding proteins was observed, quantified by the density of the bands. […]

[3] = Body weight in ovariectomized osteoporosis rat model; assay type: in vivo, Sprague-Dawley (SD) female rats; details: rat, in vivo
Procedure: Inducing osteoporosis animal models and experimental methods: • 1. 6-month old Sprague-Dawley (SD) female rats were purchased; • 2. These rats were divided into 7 groups, of which Group 1 was given pseudo-surgery, Group 2-7 underwent bilateral ovariectomies; • 3. On the 6th day after surgery, 1 mL/kg of vehicle alone was given orally to Group 1, Group 2 daily, Zoledronic Acid and Prolia were administered weekly by injections to Group 3, Group 4, respectively; 1, 3, 10 mg/kg of the compound of formula I was given orally every 3 days to Groups 5-7, respectively; • 4. Body weight and bone density were measured weekly, blood was drawn until the 118th day; • 5. Rats were then sacrificed to obtain kidneys, livers and rat tibia; • 6. Data were consolidated and processed.

## CNC(=O)N[C@]1(C)CCC[C@@]2(C)C3CC[C@@]4(C)C[C@]3(CCC21)CC4=O (single isomer, unassigned; ent-16) [compound of formula I, ent-16-oxobeyeran-19-N-methylureido]
[1]; 10 μg/ml, 3, 6, 9, 12 days
  cytotoxicity over time (MTT): no cytotoxin was produced
[1]; 72 hours
  concentration above which cytotoxic (decreased survival rate): higher than 40 μg/ml
[1]; Mus musculus, RAW264.7, 72 hours, 0-80 μg/ml, read-out: IC50 (cell survival rate, MTT)
  IC50: ~40 µg/mL
[2]
  NF-κB p65 protein expression: protein expression was reduced
[3]
  effect on body weight: different from commercially available drugs
